For series [1] the following is noted: instrument: DT, single field, calibrated with Agilent tune mix (Agilent).
For series [2] the following is noted: instrument: TW, calibrated with polyalanine and drug standards.
For series [3] the following is noted: instrument: DT, single field, calibrated with ESI Low Concentration Tuning Mix (Agilent).

Structures are written as SMILES. Values joined by “and” are separate entries in the source; they are usually repeats but may differ in a detail not shown here. Identical values can stand only once.

Turning to `NC(CCCC(=O)O)C(=O)O` (racemic) [DL-2-Aminoadipic acid], the “collision cross section (N2)” value is 134.4 Å² in series [1] ([M+H]+) and 127.69 Å² in series [1] ([M-H]-).
On to `O=C(O)C(CO)OP(=O)(O)O` (racemic) [DL-2-Phosphoglycerate], for which, in series [1] ([M+Na]+), the “collision cross section (N2)” value was 141.8 Å².
With `CS(=O)CCC(N)C(=O)O` (racemic) [DL-Methionine sulfoxide], the “collision cross section (N2)” value in series [1] ([M+H]+) was found to be 133.1 Å².
Take `Cn1c(=O)[nH]c2ncn(C)c2c1=O` [1,7-Dimethylxanthine]: the “collision cross section (N2)” value in series [1] ([M-H]-) turned out to be 133.24 Å².
In the case of `Cn1cc(CCN)c2ccccc21` [1-Methyltryptamine], the “collision cross section (N2)” value in series [1] ([M+Na]+) is given as 139 Å².
Regarding `Cn1c(=O)[nH]c2[nH]c(=O)[nH]c2c1=O` [1-Methyluric acid], the “collision cross section (N2)” value in series [1] ([M-H]-) came out at 129.18 Å².
As to `O=C(O)c1ccccc1O[C@@H]1O[C@H](C(=O)O)[C@@H](O)[C@H](O)[C@H]1O` [1-Salicylate glucuronide], the “collision cross section (N2)” value in series [1] ([M+Na]+) worked out at 170.1 Å²; in series [1] ([M-H]-), 157.84 Å².
Turning to `Nc1ncnc2c1ncn2[C@H]1C[C@H](O)[C@@H](COP(=O)(O)O)O1` [2'-Deoxyadenosine 5'-monophosphate], the “collision cross section (N2)” value in series [1] ([M+H]+) amounted to 168.1 Å².
In the case of `Nc1ccn([C@H]2C[C@H](O)[C@@H](COP(=O)(O)O)O2)c(=O)n1` [2'-Deoxycytidine 5'-monophosphate], in series [1] ([M+Na]+), the “collision cross section (N2)” value worked out at 164 Å².
For `O=C(O)C(COP(=O)(O)O)OP(=O)(O)O` [2,3-Diphospho-D-glyceric acid], the “collision cross section (N2)” value in series [1] ([M+Na]+) is 152.3 Å².
With `O=P(O)(O)OC[C@H]1O[C@@H](O)C[C@@H]1O` [2-Deoxyribose 5-phosphate], the “collision cross section (N2)” value in series [1] ([M-H]-) amounted to 132.47 Å².
On to `CNc1nc(=O)c2ncn([C@@H]3O[C@H](CO)[C@@H](O)[C@H]3O)c2[nH]1` [2-Methylguanosine], for which the “collision cross section (N2)” value is given as 166.02 Å² in series [1] ([M+Na-2H]-) and 178.4 Å² in series [1] ([M+Na]+).
On to `O=C(O)CCCC(=O)C(=O)O` [2-Oxoadipic acid], for which, in series [1] ([M+Na-2H]-), the “collision cross section (N2)” value was 129.65 Å².
Consider `N[C@@H](Cc1ccc(O)c(O)c1)C(=O)O` [3,4-Dihydroxy-L-phenylalanine], for which the “collision cross section (N2)” value in series [1] ([M+H]+) is recorded as 148.7 Å²; in series [1] ([M-H]-), 138.21 Å².
`O=C(O)Cc1ccc(O)c(O)c1` [3,4-Dihydroxyphenylacetic acid]: in series [1] ([M-H2O-H]-), the “collision cross section (N2)” value is given as 125.7 Å².
With `NC(Cc1cc(I)c(Oc2ccc(O)cc2)c(I)c1)C(=O)O` (centres undefined) [3,5-Diiodothyronine], the “collision cross section (N2)” value came to 198.2 Å² in series [1] ([M+H]+) and 186.44 Å² in series [1] ([M-H]-).
With `CC(CC(=O)O)CC(=O)O` [3-Methylglutaric acid], in series [1] ([M-H]-), the “collision cross section (N2)” value is given as 122.88 Å².
Still for that read-out and setting: to `Cn1c(=O)[nH]c(=O)c2[nH]c(=O)[nH]c21` [3-Methyluric acid] belongs 128.86 Å².
Regarding `O=C(O)[C@H](O)COP(=O)(O)O` [3-Phospho-D-glycerate], the “collision cross section (N2)” value in series [1] ([M+Na]+) was found to be 139.4 Å².
Take `C[C@]12CC[C@@H](O)C[C@H]1CC[C@@H]1[C@@H]2[C@@H](O)C[C@]2(C)[C@@H](C(=O)CO)CC[C@@H]12` [3alpha,11beta,21-Trihydroxy-5beta-pregnan-20-one]: the “collision cross section (N2)” value is given as 179.6 Å² in series [1] ([M+H-H2O]+) and 187.18 Å² in series [1] ([M-H]-).
In the case of `CC(=O)OCC[N+](C)(C)C` [ACETYLCHOLINE], the “collision cross section (N2)” value is listed as 130.1 Å² in series [2] ([M]+) and 129.5 Å² in series [3] ([M+]+).
Turning to `Nc1ncnc2nc[nH]c12` [ADENINE], the “collision cross section (N2)” value in series [2] ([M+H]+) was 122.4 Å²; in series [3] ([M+H]+), 124.9 Å²; in series [3] ([M+Na]+), 137 Å² and 137.4 Å²; in series [3] ([M-H]-), 119.6 Å² and 119.8 Å².
For the compound `Nc1ncnc2c1ncn2[C@@H]1O[C@H](CO)[C@@H](O)[C@H]1O` [ADENOSINE], the “collision cross section (N2)” value in series [2] ([M+H]+) was 156.9 Å²; in series [3] ([M+H]+) it was 155.6 Å² and 161.4 Å²; in series [3] ([M+Na]+), 165.5 Å²; in series [3] ([M-H]-), 157.6 Å².
In the case of `O=C(O)CCCC[C@@H]1SC[C@@H]2NC(=O)N[C@@H]21` [BIOTIN], the “collision cross section (N2)” value in series [2] ([M+H]+) was found to be 148 Å²; in series [3] ([M+H]+) it was 149.7 Å²; in series [3] ([M+K]+), 160.1 Å²; in series [3] ([M+Na-2H]-), 152.9 Å²; in series [3] ([M+Na]+) it was 159.9 Å².
For `C[C@]12CCC(=O)C=C1CC[C@@H]1[C@@H]2C(=O)C[C@@]2(C)[C@H]1CC[C@]2(O)C(=O)CO` [CORTISONE], the “collision cross section (N2)” value was determined as 184.4 Å² in series [2] ([M+H]+), 188.3 Å² in series [3] ([M+H]+), 213.2 Å² in series [3] ([M+Na]+) and 191.4 Å² in series [3] ([M-H]-).
Regarding `N[C@@H](CSSC[C@H](N)C(=O)O)C(=O)O` [CYSTINE], the “collision cross section (N2)” value in series [2] ([M+H]+) came to 148.1 Å²; in series [3] ([M+H]+), 149.4 Å²; in series [3] ([M+Na-2H]-), 147.3 Å²; in series [3] ([M+Na]+), 151.2 Å²; in series [3] ([M-H]-), 143 Å².
`Nc1ccn([C@@H]2O[C@H](CO)[C@@H](O)[C@H]2O)c(=O)n1` [CYTIDINE]: the “collision cross section (N2)” value in series [2] ([M+H]+) was determined as 151.1 Å²; in series [3] ([M+H]+), 151 Å²; in series [3] ([M+Na]+) it was 159.7 Å²; in series [3] ([M-H]-), 149.8 Å².
`Nc1ncnc2c1ncn2[C@H]1C[C@H](O)[C@@H](CO)O1` [DEOXYADENOSINE]: the “collision cross section (N2)” value is 154.6 Å² in series [2] ([M+H]+); 152.3 Å² and 158.1 Å² in series [3] ([M+H]+); 161.6 Å² in series [3] ([M+Na]+); 155.3 Å² in series [3] ([M-H]-).
As to `O=C1O[C@H](CO)[C@@H](O)[C@H](O)[C@H]1O` [GLUCONOLACTONE], the “collision cross section (N2)” value is given as 127.6 Å² in series [2] ([M+H]+), 132.6 Å² in series [3] ([M+H2O-H]-), 132.5 Å² in series [3] ([M+H20-H]-) and 144.7 Å² in series [3] ([M+Na]+).
For `O=c1nc[nH]c2nc[nH]c12` [HYPOXANTHINE], the “collision cross section (N2)” value in series [2] ([M+H]+) is on record as 123.1 Å²; in series [3] ([M+H]+), 127.2 Å²; in series [3] ([M+Na-2H]-) it was 134.4 Å²; in series [3] ([M+Na]+), 134.4 Å²; in series [3] ([M-H]-), 116.9 Å².
Take `N[C@@H](Cc1cc(I)c(Oc2ccc(O)c(I)c2)c(I)c1)C(=O)O` [LIOTHYRONINE]: the results for the “collision cross section (N2)” value in series [2] ([M+H]+), in series [3] ([M+H]+) and in series [3] ([M+Na]+) were 205.3 Å², 209.1 Å² and 194.3 Å², respectively.
Consider `OC[C@@H](O)[C@@H](O)[C@H](O)[C@H](O)CO` [MANNITOL], for which the “collision cross section (N2)” value was 139.6 Å² in series [2] ([M+Na]+) and 141.1 Å² in series [3] ([M+Na]+).
Take `COc1ccc2[nH]cc(CCNC(C)=O)c2c1` [MELATONIN]: the “collision cross section (N2)” value in series [2] ([M+H]+) stood at 152 Å²; in series [3] ([M+H]+), 153.2 Å²; in series [3] ([M+K]+), 158.3 Å².
`OC[C@H]1O[C@H](OC[C@H]2OC(O)[C@H](O)[C@@H](O)[C@@H]2O)[C@H](O)[C@@H](O)[C@H]1O` (some centres undefined) [MELIBIOSE]: the “collision cross section (N2)” value in series [2] ([M+Na]+) is on record as 174.8 Å²; in series [3] ([M+H]+), 180.4 Å²; in series [3] ([M+K]+), 180 Å²; in series [3] ([M+Na]+), 177.3 Å²; in series [3] ([M-H]-) it was 178.1 Å².
Regarding `Cn1c(=O)[nH]c2ncn(C)c2c1=O` [PARAXANTHINE], the figures for the “collision cross section (N2)” value in series [2] ([M+H]+), in series [3] ([M+H]+) and in series [3] ([M+Na]+) were 132.4 Å², 138.7 Å² and 149.5 Å², respectively.
`Cn1c(=O)c2[nH]cnc2n(C)c1=O` [THEOPHYLLINE]: the “collision cross section (N2)” value in series [2] ([M+H]+) came out at 133.5 Å²; in series [3] ([M-H]-) it was 132 Å².
On to `O=c1ccn([C@@H]2O[C@H](COP(=O)(O)OP(=O)(O)OP(=O)(O)O)[C@@H](O)[C@H]2O)c(=O)[nH]1` [URIDINE TRIPHOSPHATE], for which the “collision cross section (N2)” value in series [3] ([M+H]+) was 187 Å²; in series [3] ([M+Na-2H]-), 190.2 Å²; in series [3] ([M+Na]+) it was 188.8 Å²; in series [3] ([M-H]-) it was 180.1 Å² and 180.2 Å².
For `O=c1ccn([C@@H]2O[C@H](CO)[C@@H](O)[C@H]2O)c(=O)[nH]1` [URIDINE], the figures for the “collision cross section (N2)” value in series [3] ([M+Na]+) and in series [3] ([M-H]-) were 160.9 Å² and 150.7 Å², respectively.
As to `O=c1[nH]c(=O)c2[nH]cnc2[nH]1` [XANTHINE], the “collision cross section (N2)” value in series [3] ([M+H]+) is recorded as 129.9 Å²; in series [3] ([M-H]-) it was 120.6 Å².
Take `O=C(O)c1cc(=O)c2cccc(O)c2[nH]1` [XANTHURENATE]: the “collision cross section (N2)” value is 140.4 Å² in series [3] ([M+H]+), 147.7 Å² in series [3] ([M+Na]+) and 134.3 Å² in series [3] ([M-H]-).
As to `OC[C@@H](O)C(O)[C@@H](O)CO` (some centres undefined) [XYLITOL], the “collision cross section (N2)” value in series [3] ([M+Na]+) stood at 135.4 Å²; in series [3] ([M-H]-) it was 124.8 Å².
Regarding `OC1OC[C@@H](O)[C@H](O)[C@H]1O` (some centres undefined) [XYLOSE], the “collision cross section (N2)” value in series [3] ([M+Na]+) amounted to 134.9 Å².
